The structures appear in SMILES notation.

For the assay, the target named is purified human, His-tagged PRC2 complex (Homo sapiens (Human), UniProt O75530). As to the kind of experiment: Hot Spot HMT assay, inhibition of PRC2 enzymatic activity. The assay is classed as biochemical. To be noted: 10 nM PRC2 complex, 1 μM 3H-SAM, core histone H3, 10-point dose-response. The source says: The assay uses purified human, His-tagged PRC2 complex, including N-terminal His-tagged EZH2 enzyme, N-terminal Flag-tagged embryonic ectoderm development protein (EED), N-terminal His-tagged suppressor of zeste 12 (SUZ12), N-terminal His-tagged AEBP2, and N-terminal His-tagged RbAp48. In this assay, the transfer of the tritiated methyl group from radiolabeled S-adenosyl methionine (SAM) to purified core histone protein by EZH2 is quantitated after filtration to determine the activity of the core PRC2 complex in the presence and absence of compound.
Sequence of purified human, His-tagged PRC2 complex (O75530 whole entry): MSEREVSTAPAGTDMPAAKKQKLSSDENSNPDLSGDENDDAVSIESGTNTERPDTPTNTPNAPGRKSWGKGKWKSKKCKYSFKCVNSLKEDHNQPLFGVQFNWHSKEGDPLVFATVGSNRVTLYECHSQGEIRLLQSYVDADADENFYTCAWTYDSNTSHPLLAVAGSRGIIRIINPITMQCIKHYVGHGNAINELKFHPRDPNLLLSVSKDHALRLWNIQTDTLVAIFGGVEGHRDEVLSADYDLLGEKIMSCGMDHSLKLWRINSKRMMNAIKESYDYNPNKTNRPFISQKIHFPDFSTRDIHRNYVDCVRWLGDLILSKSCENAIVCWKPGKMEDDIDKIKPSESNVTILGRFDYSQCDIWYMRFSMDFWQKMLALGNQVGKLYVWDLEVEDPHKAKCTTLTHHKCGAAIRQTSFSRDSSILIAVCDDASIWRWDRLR
Sequence of purified human, His-tagged PRC2 complex (Q15910 whole entry partner): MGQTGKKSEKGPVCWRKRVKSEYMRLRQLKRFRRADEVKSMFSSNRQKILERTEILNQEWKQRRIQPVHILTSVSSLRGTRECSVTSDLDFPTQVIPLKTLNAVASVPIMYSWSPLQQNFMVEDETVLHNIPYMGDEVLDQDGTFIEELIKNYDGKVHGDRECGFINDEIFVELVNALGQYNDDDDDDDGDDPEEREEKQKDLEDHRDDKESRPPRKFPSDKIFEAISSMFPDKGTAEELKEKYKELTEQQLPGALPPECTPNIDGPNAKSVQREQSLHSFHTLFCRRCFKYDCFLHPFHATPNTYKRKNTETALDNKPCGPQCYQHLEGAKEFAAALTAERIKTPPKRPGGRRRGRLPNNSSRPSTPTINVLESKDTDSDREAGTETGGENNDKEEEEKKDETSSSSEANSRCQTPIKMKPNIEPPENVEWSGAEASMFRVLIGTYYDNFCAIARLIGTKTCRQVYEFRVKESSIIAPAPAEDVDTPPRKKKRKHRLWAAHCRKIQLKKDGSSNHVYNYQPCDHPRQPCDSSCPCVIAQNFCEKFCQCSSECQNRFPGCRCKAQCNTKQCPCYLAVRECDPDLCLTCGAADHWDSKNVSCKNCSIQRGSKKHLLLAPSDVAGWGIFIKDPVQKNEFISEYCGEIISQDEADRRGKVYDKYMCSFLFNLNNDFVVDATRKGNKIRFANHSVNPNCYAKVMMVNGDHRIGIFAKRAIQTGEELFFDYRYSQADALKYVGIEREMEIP
Sequence of purified human, His-tagged PRC2 complex (Q15022 whole entry partner): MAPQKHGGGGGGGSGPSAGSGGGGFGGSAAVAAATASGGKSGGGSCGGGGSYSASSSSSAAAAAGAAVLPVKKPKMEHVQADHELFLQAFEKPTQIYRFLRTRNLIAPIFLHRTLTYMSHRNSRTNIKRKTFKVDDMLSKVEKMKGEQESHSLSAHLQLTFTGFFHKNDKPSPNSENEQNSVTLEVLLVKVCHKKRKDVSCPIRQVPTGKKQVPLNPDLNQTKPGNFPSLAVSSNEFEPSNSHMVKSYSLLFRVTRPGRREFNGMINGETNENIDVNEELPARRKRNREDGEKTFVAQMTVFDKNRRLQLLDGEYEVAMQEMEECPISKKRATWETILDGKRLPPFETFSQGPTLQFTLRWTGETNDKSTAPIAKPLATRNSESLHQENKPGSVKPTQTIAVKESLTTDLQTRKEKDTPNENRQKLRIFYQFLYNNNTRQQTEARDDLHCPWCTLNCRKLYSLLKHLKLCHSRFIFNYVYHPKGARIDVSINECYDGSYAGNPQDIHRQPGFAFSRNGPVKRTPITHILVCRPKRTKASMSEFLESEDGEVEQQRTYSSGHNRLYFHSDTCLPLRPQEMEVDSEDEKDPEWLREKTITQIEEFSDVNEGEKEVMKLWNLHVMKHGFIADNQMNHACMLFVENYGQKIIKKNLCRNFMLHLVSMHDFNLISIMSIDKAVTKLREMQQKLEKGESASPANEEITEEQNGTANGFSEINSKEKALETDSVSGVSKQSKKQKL
Sequence of purified human, His-tagged PRC2 complex (Q6ZN18 whole entry partner): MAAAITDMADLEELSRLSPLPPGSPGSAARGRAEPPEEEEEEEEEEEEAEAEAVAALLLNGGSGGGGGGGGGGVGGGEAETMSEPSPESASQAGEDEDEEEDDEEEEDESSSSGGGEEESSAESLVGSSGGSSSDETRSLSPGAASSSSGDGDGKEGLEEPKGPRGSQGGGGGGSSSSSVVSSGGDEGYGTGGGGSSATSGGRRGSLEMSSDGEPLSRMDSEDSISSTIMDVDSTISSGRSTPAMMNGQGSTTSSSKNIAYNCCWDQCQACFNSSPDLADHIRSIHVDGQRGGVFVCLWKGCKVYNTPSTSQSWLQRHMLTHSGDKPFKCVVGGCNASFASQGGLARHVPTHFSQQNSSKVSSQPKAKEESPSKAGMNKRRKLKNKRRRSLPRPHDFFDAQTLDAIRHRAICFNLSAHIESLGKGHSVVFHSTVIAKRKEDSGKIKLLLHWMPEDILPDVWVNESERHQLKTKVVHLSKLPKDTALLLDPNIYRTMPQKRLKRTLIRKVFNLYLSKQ
Sequence of purified human, His-tagged PRC2 complex (Q09028 whole entry partner): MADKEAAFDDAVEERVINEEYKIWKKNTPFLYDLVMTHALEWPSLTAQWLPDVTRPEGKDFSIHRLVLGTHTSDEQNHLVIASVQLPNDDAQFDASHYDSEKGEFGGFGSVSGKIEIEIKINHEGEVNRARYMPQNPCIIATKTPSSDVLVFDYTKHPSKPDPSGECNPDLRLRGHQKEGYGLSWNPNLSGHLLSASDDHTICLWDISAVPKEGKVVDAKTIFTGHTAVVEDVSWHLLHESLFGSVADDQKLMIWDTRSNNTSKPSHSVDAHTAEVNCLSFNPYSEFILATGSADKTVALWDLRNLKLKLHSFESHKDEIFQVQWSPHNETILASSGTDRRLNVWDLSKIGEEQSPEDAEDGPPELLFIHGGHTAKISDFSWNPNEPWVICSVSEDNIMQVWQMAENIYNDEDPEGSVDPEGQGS
The initial starting concentration for the serial dilutions of each compound was 1.0 μM. […] SAH (S-(5-adenosyl)-L-homocysteine) was used as a positive control for assay validation.
An aliquot of each serial dilution of test compound was added to deep 384 well plate using Acoustic Technology instrument (Echo 550, LabCyte) containing reaction buffer (50 mM Tris-HCl (pH 8.)), 0.01% Brij35, 1 mM EDTA, 1 mM DTT, 1 mM PMSF and 1% DMSO), 10 nM purified PRC2 complex and 0.05 mg/ml core histone H3 in a 5 μl volume. The reaction was mixed gently and then pre-incubated for 20 min at 30° C. The enzymatic reaction was initiated by adding 1 μM S-Adenosyl-L-[methyl-^3H]methionine and incubated for 1 hr at 30° C. After 1 hr, the reaction product was detected using a filter binding method and the amount of tritiated H3 core histone was quantitated using a scintillation counter. […] Key: A=<100 nM; B=>100 nM-<500 nM; and C=>500 nM.
`COCCOc1ccc(-c2cnc(NCc3c(F)ccc4c3CCO4)n3cc(C#N)nc23)cn1` [Example 158, 5-(((5-fluoro-2,3-dihydrobenzofuran-4-yl)methyl)amino)-8-(6-(2-methoxyethoxy)pyridin-3-yl)imidazo[1,2-c]pyrimidine-2-carbonitrile]: the concentration for half-maximal inhibition (IC50) was 100 to 500 nM.
To `N#Cc1cn2c(NCc3c(F)ccc4c3CCO4)ncc(-c3ccc(N4CCCCC4)nc3)c2n1` [Example 135, 5-(((5-fluoro-2,3-dihydrobenzofuran-4-yl)methyl)amino)-8-(6-(piperidin-1-yl)pyridin-3-yl)imidazo[1,2-c]pyrimidine-2-carbonitrile] belongs less than 100 nM; to `CN1CCCC1c1ccc(-c2cnc(NCc3c(F)ccc4c3CCO4)n3cc(C#N)nc23)cc1` (stereo not drawn) [Example 160, 5-(((5-fluoro-2,3-dihydrobenzofuran-4-yl)methyl)amino)-8-(4-(1-methylpyrrolidin-2-yl)phenyl)imidazo[1,2-c]pyrimidine-2-carbonitrile], less than 100 nM; to `N#Cc1cn2c(NCc3c(F)ccc4c3CCO4)ncc(-c3cnn(C4CCOC4)c3)c2n1` (stereo not drawn) [Example 107, 5-(((5-fluoro-2,3-dihydrobenzofuran-4-yl)methyl)amino)-8-(1-(tetrahydrofuran-3-yl)-1H-pyrazol-4-yl)imidazo[1,2-c]pyrimidine-2-carbonitrile], 100 to 500 nM.
The value for `Cc1cc(S(=O)(=O)C(F)(F)F)ccc1-c1cnc(NCc2c(F)ccc3c2CCO3)n2cc(C#N)nc12` [Example 184, 5-(((5-fluoro-2,3-dihydrobenzofuran-4-yl)methyl)amino)-8-(2-methyl-4-((trifluoromethyl)sulfonyl)phenyl)imidazo[1,2-c]pyrimidine-2-carbonitrile] was 100 to 500 nM.
Turning to `N#Cc1cn2c(NCc3c(F)ccc4c3CCO4)ncc(-c3ccc(N)nc3)c2n1` [Example 127, 8-(6-aminopyridin-3-yl)-5-(((5-fluoro-2,3-dihydrobenzofuran-4-yl)methyl)amino)imidazo[1,2-c]pyrimidine-2-carbonitrile], the half-maximal inhibitory concentration (IC50) is less than 100 nM.
To `Cc1nn(C(C)C)c(C)c1-c1cnc(NCc2c(F)ccc3c2CCO3)n2cc(C#N)nc12` [Example 92, 5-(((5-fluoro-2,3-dihydrobenzofuran-4-yl)methyl)amino)-8-(1-isopropyl-3,5-dimethyl-1H-pyrazol-4-yl)imidazo[1,2-c]pyrimidine-2-carbonitrile] belongs 100 to 500 nM; to `CN(C)Cc1ccc(-c2cnc(NCc3c(F)ccc4c3CCO4)n3cc(C#N)nc23)cc1F` [Example 63, 8-(4-((dimethylamino)methyl)-3-fluorophenyl)-5-(((5-fluoro-2,3-dihydrobenzofuran-4-yl)methyl)amino)imidazo[1,2-c]pyrimidine-2-carbonitrile], less than 100 nM.
To `CN1CCOCC1c1ccc(-c2cnc(NCc3c(F)ccc4c3CCO4)n3cc(C#N)nc23)cc1` (stereo not drawn) [Example 227, 5-(((5-fluoro-2,3-dihydrobenzofuran-4-yl)methyl)amino)-8-(4-(4-methylmorpholin-3-yl)phenyl)imidazo[1,2-c]pyrimidine-2-carbonitrile] belongs less than 100 nM; to `CN(C)Cc1ccc(-c2cnc(NCc3c(F)ccc4c3CCO4)n3cc(C#N)nc23)c(F)c1F` [Example 37, 8-(4-((dimethylamino)methyl)-2,3-difluorophenyl)-5-(((5-fluoro-2,3-dihydrobenzofuran-4-yl)methyl)amino)imidazo[1,2-c]pyrimidine-2-carbonitrile], less than 100 nM.
`COc1cncc(-c2cnc(NCc3c(F)ccc4c3CCO4)n3cc(C#N)nc23)c1` [Example 93, 5-(((5-fluoro-2,3-dihydrobenzofuran-4-yl)methyl)amino)-8-(5-methoxypyridin-3-yl)imidazo[1,2-c]pyrimidine-2-carbonitrile] had a half-maximal inhibitory concentration (IC50) of 100 to 500 nM.
Compound `CC(=O)Nc1cc(-c2cnc(NCc3c(F)ccc4c3CCO4)n3cc(C#N)nc23)ccn1` [Example 131, N-(4-(2-cyano-5-(((5-fluoro-2,3-dihydrobenzofuran-4-yl)methyl)amino)imidazo[1,2-c]pyrimidin-8-yl)pyridin-2-yl)acetamide] returned a half-maximal inhibitory concentration (IC50) of less than 100 nM.
The value for `Cc1c(-c2cnc(NCc3c(F)ccc4c3CCO4)n3cc(C#N)nc23)cnn1C(C)C` [Example 26, 5-(((5-fluoro-2,3-dihydrobenzofuran-4-yl)methyl)amino)-8-(1-isopropyl-5-methyl-1H-pyrazol-4-yl)imidazo[1,2-c]pyrimidine-2-carbonitrile] was 100 to 500 nM; that for `Cc1c(-c2cnc(NCc3c(F)ccc4c3CCO4)n3cc(C(N)=O)nc23)cnn1C(C)C` [Example 16, 5-(((5-fluoro-2,3-dihydrobenzofuran-4-yl)methyl)amino)-8-(1-isopropyl-5-methyl-1H-pyrazol-4-yl)imidazo[1,2-c]pyrimidine-2-carboxamide] was less than 100 nM.
Consider `N#Cc1cn2c(NCc3c(F)ccc4c3CCO4)ncc(-c3cncc(C(F)(F)F)c3)c2n1` [Example 132, 5-(((5-fluoro-2,3-dihydrobenzofuran-4-yl)methyl)amino)-8-(5-(trifluoromethyl)pyridin-3-yl)imidazo[1,2-c]pyrimidine-2-carbonitrile], for which the IC50 is more than 500 nM.
To `N#Cc1cn2c(NCc3c(F)ccc4c3CCO4)ncc(-c3cnn(C4CCOCC4)c3)c2n1` [Example 120, 5-(((5-fluoro-2,3-dihydrobenzofuran-4-yl)methyl)amino)-8-(1-(tetrahydro-2H-pyran-4-yl)-1H-pyrazol-4-yl)imidazo[1,2-c]pyrimidine-2-carbonitrile] belongs more than 500 nM; to `COc1ccc(-c2cnc(NCc3c(F)ccc4c3CCO4)n3cc(C#N)nc23)cn1` [Example 94, 5-(((5-fluoro-2,3-dihydrobenzofuran-4-yl)methyl)amino)-8-(6-methoxypyridin-3-yl)imidazo[1,2-c]pyrimidine-2-carbonitrile], less than 100 nM; to `Cc1cc(S(=O)(=O)N(C)C)ccc1-c1cnc(NCc2c(F)ccc3c2CCO3)n2cc(C#N)nc12` [Example 48, 4-(2-cyano-5-(((5-fluoro-2,3-dihydrobenzofuran-4-yl)methyl)amino)imidazo[1,2-c]pyrimidin-8-yl)-N,N,3-trimethylbenzenesulfonamide], less than 100 nM.
Turning to `[2H]C([2H])(c1ccc(-c2cnc(NCc3c(F)ccc4c3CCO4)n3cc(C#N)nc23)c(C)c1)N(C)C` [Example 173, 8-(4-((dimethylamino)methyl-d2)-2-methylphenyl)-5-(((5-fluoro-2,3-dihydrobenzofuran-4-yl)methyl)amino)imidazo[1,2-c]pyrimidine-2-carbonitrile], the concentration for half-maximal inhibition (IC50) is less than 100 nM.
To `Cc1ccc(-c2cnc(NCc3c(F)ccc4c3CCO4)n3cc(C#N)nc23)c(C)c1` [Example 192, 8-(2,4-dimethylphenyl)-5-(((5-fluoro-2,3-dihydrobenzofuran-4-yl)methyl)amino)imidazo[1,2-c]pyrimidine-2-carbonitrile] belongs more than 500 nM; to `Cc1cc(S(C)(=O)=O)ccc1-c1cnc(NCc2c(F)ccc3c2CCO3)n2cc(C#N)nc12` [Example 87, 5-(((5-fluoro-2,3-dihydrobenzofuran-4-yl)methyl)amino)-8-(2-methyl-4-(methylsulfonyl)phenyl)imidazo[1,2-c]pyrimidine-2-carbonitrile], less than 100 nM.

Values taken from patent US20240398811A1, “PRC2 INHIBITORS FOR USE IN TREATING BLOOD DISORDERS” (ORIC Pharmaceuticals, Inc., priority 2021, published 2024).
